Target: PHD2_181-426 (Homo sapiens, UniProt Q9GZT9)
Experiment: Photo cross-linking of purified PHD2 analysed by MALDI-MS
Type: binding

PHD2_181-426, sequence (Q9GZT9 181-426): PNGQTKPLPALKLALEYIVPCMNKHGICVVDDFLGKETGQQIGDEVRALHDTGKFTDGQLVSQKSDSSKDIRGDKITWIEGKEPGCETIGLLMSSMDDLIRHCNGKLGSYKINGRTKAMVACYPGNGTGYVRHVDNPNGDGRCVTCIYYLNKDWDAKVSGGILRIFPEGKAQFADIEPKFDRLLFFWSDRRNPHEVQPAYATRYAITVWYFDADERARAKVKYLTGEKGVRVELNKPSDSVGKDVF

`O=C(O)CNC(=O)c1nc(Cl)c2ccccc2c1O` [[(1-chloro-4-hydroxyisoquinoline-3-carbonyl)-amino]-acetic acid] was tested, and the “extent of cross-linking of PHD2 by DR025 in competition experiment” value was “substantially reduced”.

Reference: PMC4681097 (Chemistry & biology, 2011)
